In ChEMBL document CHEMBL5335775, “Bioisosteric replacement of 1H-1,2,3-triazole with 1H-tetrazole ring enhances anti-leukemic activity of (5-benzylthiazol-2-yl)benzamides” (Eur J Med Chem, 2023):
pIC50: −log10 of the molar value. Each block holds one compound with its values, some of them ahead of it. Activity calls are given as the source filed them. The calls are words filed in the database; no cut-off is given here.

Key:
DU-145 = assay: Antiproliferative activity against human DU-145 cells assessed as inhibition of cell proliferation incubated for 3 days by Alamar blue dye based assay; format: functional; conditions: DU-145, 72 h
[1] = target: NAD-dependent protein deacetylase sirtuin-2 (Homo sapiens, UniProt Q8IXJ6); assay: Inhibition of N-terminal His6-tagged human Sirt2 (25 to 389 residues) using ZMAL as substrate incubated for 4 hrs by fluorescence based assay
[2] = Antiproliferative activity against NIH3T3 cells assessed as inhibition of cell proliferation measured after 72 hrs by MTT assay; format: toxicity, cell-based; conditions: mouse
K562 [3] = assay: Antiproliferative activity against human K562 cells assessed as inhibition of cell proliferation measured after 72 hrs by MTT assay; format: functional, cell-based; conditions: K562, 72 h
[4] = Antiproliferative activity against J774.2 cells assessed as inhibition of cell proliferation measured after 72 hrs by MTT assay; format: toxicity, cell-based; conditions: mouse
[5] = Antiproliferative activity against human HaCaT cells assessed as inhibition of cell proliferation measured after 72 hrs by MTT assay; format: toxicity, cell-based
[6] = Selectivity index, ratio of IC50 for […] to IC50 for human K562 cells; format: functional
KM12 [7] = assay: Antiproliferative activity against human KM12 cells assessed as inhibition of cell proliferation measured after 48 hrs by SRB assay; format: functional, cell-based; conditions: KM12, 48 h
MDA-MB-468 [8] = assay: Antiproliferative activity against human MDA-MB-468 cells assessed as inhibition of cell proliferation measured after 48 hrs by SRB assay; format: functional, cell-based; conditions: MDA-MB-468, 48 h
CAKI-1 [9] = assay: Antiproliferative activity against human CAKI-1 cells assessed as inhibition of cell proliferation measured after 48 hrs by SRB assay; format: functional, cell-based; conditions: CAKI-1, 48 h
UACC-62 [10] = assay: Antiproliferative activity against human UACC-62 cells assessed as inhibition of cell proliferation measured after 48 hrs by SRB assay; format: functional, cell-based; conditions: UACC-62, 48 h
OVCAR-4 = assay: Antiproliferative activity against human OVCAR-4 cells assessed as inhibition of cell proliferation measured after 48 hrs by SRB assay; format: functional, cell-based; conditions: OVCAR-4, 48 h
NCI/ADR-RES = assay: Antiproliferative activity against human NCI-ADR-RES cells assessed as inhibition of cell proliferation measured after 48 hrs by SRB assay; format: functional, cell-based
BT-549 = assay: Antiproliferative activity against human BT-549 cells assessed as inhibition of cell proliferation measured after 48 hrs by SRB assay; format: functional, cell-based; conditions: BT-549, 48 h
PC-3 = assay: Antiproliferative activity against human PC-3 cells assessed as inhibition of cell proliferation measured after 48 hrs by SRB assay; format: functional, cell-based; conditions: PC-3, 48 h
SK-MEL-5 = assay: Antiproliferative activity against human SK-MEL-5 cells assessed as inhibition of cell proliferation measured after 48 hrs by SRB assay; format: functional, cell-based; conditions: SK-MEL-5, 48 h
KM12 [11] = assay: Anticancer activity against human KM12 cells assessed as cell growth at 10^-5 M incubated for 48 hrs by SRB assay relative to control; format: functional; conditions: KM12, 48 h, dose 1 10^-5M, read-out: Activity
MDA-MB-435 = assay: Anticancer activity against human MDA-MB-435 cells assessed as cell growth at 10^-5 M incubated for 48 hrs by SRB assay relative to control; format: functional; conditions: MDA-MB-435, 48 h, dose 1 10^-5M, read-out: Activity
NCI-H460 = assay: Anticancer activity against human NCI-H460 cells assessed as cell growth at 10^-5 M incubated for 48 hrs by SRB assay relative to control; format: functional; conditions: NCI-H460, 48 h, dose 1 10^-5M, read-out: Activity
LOX IMVI = assay: Anticancer activity against human LOX IMVI cells assessed as cell growth at 10^-5 M incubated for 48 hrs by SRB assay relative to control; format: functional; conditions: dose 1 10^-5M, read-out: Activity
K562 [12] = assay: Anticancer activity against human K562 cells assessed as cell growth at 10^-5 M incubated for 48 hrs by SRB assay relative to control; format: functional; conditions: K562, 48 h, dose 1 10^-5M, read-out: Activity
ACHN = assay: Anticancer activity against human ACHN cells assessed as cell growth at 10^-5 M incubated for 48 hrs by SRB assay relative to control; format: functional; conditions: dose 1 10^-5M, read-out: Activity
CAKI-1 [13] = assay: Anticancer activity against human CAKI-1 cells assessed as cell growth at 10^-5 M incubated for 48 hrs by SRB assay relative to control; format: functional; conditions: CAKI-1, 48 h, dose 1 10^-5M, read-out: Activity
HCT-15 = assay: Anticancer activity against human HCT-15 cells assessed as cell growth at 10^-5 M incubated for 48 hrs by SRB assay relative to control; format: functional; conditions: HCT-15, 48 h, dose 1 10^-5M, read-out: Activity
M14 = assay: Anticancer activity against human M14 cells assessed as cell growth at 10^-5 M incubated for 48 hrs by SRB assay relative to control; format: functional; conditions: M14, 48 h, dose 1 10^-5M, read-out: Activity
UACC-62 [14] = assay: Anticancer activity against human UACC-62 cells assessed as cell growth at 10^-5 M incubated for 48 hrs by SRB assay relative to control; format: functional; conditions: UACC-62, 48 h, dose 1 10^-5M, read-out: Activity
MCF7 = assay: Anticancer activity against human MCF7 cells assessed as cell growth at 10^-5 M incubated for 48 hrs by SRB assay relative to control; format: functional; conditions: MCF7, 48 h, dose 1 10^-5M, read-out: Activity
MDA-MB-468 [15] = assay: Anticancer activity against human MDA-MB-468 cells assessed as cell growth at 10^-5 M incubated for 48 hrs by SRB assay relative to control; format: functional; conditions: MDA-MB-468, 48 h, dose 1 10^-5M, read-out: Activity
K562 [16] = assay: Induction of pro-apoptotic morphological changes in human K562 cells at 70 to 700 nM incubated for 24 hrs by Hoescht-33342 staining based analysis; format: functional, cell-based; conditions: dose 70-700 nM
K562 [17] = assay: Induction of DNA damage in human K562 cells assessed as tail DNA level at 700 nM incubated for 24 hrs by comet assay (reference value: 0.5 to 0.6 %); format: functional
K562 [18] = assay: Induction of DNA damage in human K562 cells assessed as olive tail moment level at 700 nM incubated for 24 hrs by comet assay (reference value: 0.2); format: functional
K562 [19] = assay: Induction of DNA damage in human K562 cells assessed as olive tail moment level at 70 nM incubated for 24 hrs by comet assay (reference value: 0.2); format: functional
K562 [20] = assay: Induction of DNA damage in human K562 cells assessed as tail DNA level at 70 nM incubated for 24 hrs by comet assay (reference value: 0.5 to 0.6 %); format: functional

Chain of NAD-dependent protein deacetylase sirtuin-2 (Q8IXJ6 whole entry, the tested form may be a part): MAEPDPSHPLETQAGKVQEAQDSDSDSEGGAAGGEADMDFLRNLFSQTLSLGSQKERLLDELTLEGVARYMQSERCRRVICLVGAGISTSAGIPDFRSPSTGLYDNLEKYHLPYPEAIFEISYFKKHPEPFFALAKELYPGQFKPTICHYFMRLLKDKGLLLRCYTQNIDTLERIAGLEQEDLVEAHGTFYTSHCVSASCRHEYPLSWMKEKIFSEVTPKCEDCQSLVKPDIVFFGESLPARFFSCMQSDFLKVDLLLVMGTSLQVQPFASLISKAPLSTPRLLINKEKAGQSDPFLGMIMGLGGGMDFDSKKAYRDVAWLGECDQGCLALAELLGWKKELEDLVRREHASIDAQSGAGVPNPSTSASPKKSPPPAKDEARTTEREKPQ

pIC50 (DU-145): 7.82
SMILES: COc1ccc(Cc2cnc(NC(=O)/C=C/c3ccco3)s2)cc1

SMILES: COCCn1cc(COc2cccc(Cc3cnc(NC(=O)CSc4nc(C)cc(C)n4)s3)c2)nn1
pIC50 [1]: 6.93

pIC50 (K562 [3]): < 4.00
SMILES: O=C(Nc1ncc(Cc2ccccc2)s1)c1ccc(-n2cnnn2)cc1O
IC50 at 72 h [2]: > 100 µM
IC50 at 72 h [4]: 22.2 µM
IC50 at 72 h [5]: > 100 µM

pIC50 (K562 [3]): < 4.00
SMILES: Cc1nnnn1-c1ccc(C(=O)Nc2ncc(Cc3ccccc3)s2)cc1
IC50 at 72 h [2]: > 100 µM
IC50 at 72 h [4]: 3.61 µM
IC50 at 72 h [5]: 6 µM

pIC50 (K562 [3]): 5.98
SMILES: O=C(/C=C/c1ccc(-n2cnnn2)cc1)Nc1ncc(Cc2ccccc2)s1
IC50 at 72 h [2]: > 100 µM
IC50 at 72 h [4]: 37.2 µM
IC50 at 72 h [5]: 50.4 µM
Ratio IC50 [6]: 35.5

pIC50 (MDA-MB-468 [8]): 5.69
pIC50 (OVCAR-4): 5.52
pIC50 (BT-549): 5.40
pIC50 (PC-3): 5.37
pIC50 (SK-MEL-5): 5.55
SMILES: Cc1cnnn1-c1ccc(C(=O)Nc2ncc(Cc3ccccc3)s2)cc1
pIC50 (KM12 [7]): 5.43
pIC50 (CAKI-1 [9]): 5.33
pIC50 (UACC-62 [10]): 5.48
pIC50 (NCI/ADR-RES): 5.39

pIC50 (K562 [3]): 4.70
SMILES: Cc1cccc(Cc2cnc(NC(=O)c3ccc(-n4cnnn4)cc3)s2)c1
IC50 at 72 h [2]: > 100 µM
growth at 10 µM (KM12 [11]): 30.2%
growth at 10 µM (MDA-MB-435): 27.7%
growth at 10 µM (NCI-H460): 25.8%
IC50 at 72 h [4]: 43.2 µM
IC50 at 72 h [5]: > 100 µM
Ratio IC50 [6]: 2.1
growth at 10 µM (LOX IMVI): 30.1%
growth at 10 µM (K562 [12]): 19.2%
growth at 10 µM (ACHN): 30.7%
growth at 10 µM (CAKI-1 [13]): 35.2%
growth at 10 µM (HCT-15): 34.6%
growth at 10 µM (M14): 33.8%
growth at 10 µM (UACC-62 [14]): 12%
growth at 10 µM (MCF7): 30.5%
growth at 10 µM (MDA-MB-468 [15]): 34.2%

pIC50 (K562 [3]): < 4.00
SMILES: CC(C)c1nnnn1-c1ccc(C(=O)Nc2ncc(Cc3ccccc3)s2)cc1
IC50 at 72 h [2]: > 100 µM
IC50 at 72 h [4]: 8.94 µM
IC50 at 72 h [5]: 5.59 µM

SMILES: COc1cccc2c1C(=O)c1c(O)c3c(c(O)c1C2=O)C[C@@](O)(C(=O)CO)C[C@@H]3O[C@H]1C[C@H](N)[C@H](O)[C@H](C)O1 [DOXORUBICIN]
IC50 at 72 h [2]: 0.79 µM
Activity (K562 [16]): inactive
Activity (K562 [17]): 3.5%
Activity (K562 [18]): 1
IC50 at 72 h [4]: 0.64 µM
IC50 at 72 h [5]: 0.86 µM
Activity (K562 [19]): 0.4
Activity (K562 [20]): 0.7%
